Reference: ChEMBL document CHEMBL3784999, “Investigation of 4-amino-5-alkynylpyrimidine-2(1H)-ones as anti-mycobacterial agents” (Bioorg Med Chem, 2016)
Calls of active or inactive are those of the source.

Columns and labels:
[1] = Cytotoxicity against African green monkey Vero cells assessed as cell viability after 3 days by XTT assay; assay type: cell-based; conditions: chlorocebus sabaeus
[2] = tested on: Mus musculus; test: Toxicity in BALB/c mouse infected with Mycobacterium tuberculosis H37Ra assessed as change in urea level in serum at 6.25 to 25 mg/kg, po administered for 2 weeks started on day 4 post bacterial infection; assay type: organism-based; conditions: in vivo, 336 h
[3] = tested on: Mycobacterium tuberculosis; test: Antimycobacterial activity against Mycobacterium tuberculosis H37Ra assessed as inhibition of mycobacterial replication at 6.25 ug/ml after 6 days by microplate Alamar blue assay in presence of isoniazid; assay type: functional; conditions: 144 h
[4] = tested on: Mus musculus; test: Toxicity in BALB/c mouse infected with Mycobacterium tuberculosis H37Ra assessed as change in calcium level in serum at 6.25 to 25 mg/kg, po administered for 2 weeks started on day 4 post bacterial infection; assay type: organism-based; conditions: in vivo, 336 h
[5] = tested on: Mycobacterium tuberculosis; test: Antimycobacterial activity against Mycobacterium tuberculosis H37Ra infected in BALB/c mouse assessed as reduction of bacterial load in liver at 25 mg/kg, po administered for 2 weeks started on day 4 post bacterial infection measured 3 days post last dose; assay type: functional
[6] = tested on: Mycobacterium tuberculosis; test: Antimycobacterial activity against Mycobacterium tuberculosis H37Ra infected in BALB/c mouse assessed as reduction of bacterial load in spleen at 12.5 mg/kg, po administered for 2 weeks started on day 4 post bacterial infection measured 3 days post last dose co-treated with 1 mg/kg, po isoniazid; assay type: functional
[7] = tested on: Mycobacterium tuberculosis; test: Ratio MIC90 for Mycobacterium tuberculosis H37Ra in presence of isoniazid to MIC90 for Mycobacterium tuberculosis H37Ra in absence of isoniazid; assay type: functional
[8] = tested on: Mus musculus; test: Toxicity in BALB/c mouse infected with Mycobacterium tuberculosis H37Ra assessed as change in amylase level in serum at 6.25 to 25 mg/kg, po administered for 2 weeks started on day 4 post bacterial infection; assay type: organism-based; conditions: in vivo, 336 h
[9] = tested on: Mus musculus; test: Toxicity in BALB/c mouse infected with Mycobacterium tuberculosis H37Ra assessed as change in cholesterol level in serum at 6.25 to 25 mg/kg, po administered for 2 weeks started on day 4 post bacterial infection; assay type: organism-based; conditions: in vivo, 336 h
[10] = tested on: Mus musculus; test: Toxicity in BALB/c mouse infected with Mycobacterium tuberculosis H37Ra assessed as behavioral changes at 6.25 to 25 mg/kg, po administered for 2 weeks started on day 4 post bacterial infection in presence of isoniazid; assay type: organism-based; conditions: in vivo, 336 h
[11] = tested on: Mycobacterium tuberculosis; test: Antimycobacterial activity against Mycobacterium tuberculosis H37Ra infected in BALB/c mouse assessed as reduction of bacterial load in lung at 25 mg/kg, po administered for 2 weeks started on day 4 post bacterial infection measured 3 days post last dose; assay type: functional
[12] = tested on: Mus musculus; test: Toxicity in BALB/c mouse infected with Mycobacterium tuberculosis H37Ra assessed as change in urea level in serum at 6.25 to 25 mg/kg, po administered for 2 weeks started on day 4 post bacterial infection in presence of isoniazid; assay type: organism-based; conditions: in vivo, 336 h
[13] = tested on: Mus musculus; test: Toxicity in BALB/c mouse infected with Mycobacterium tuberculosis H37Ra at 6.25 to 25 mg/kg, po administered for 2 weeks started on day 4 post bacterial infection by necroscopy; assay type: organism-based; conditions: in vivo, 336 h
[14] = tested on: Mus musculus; test: Toxicity in BALB/c mouse infected with Mycobacterium tuberculosis H37Ra assessed as change in amylase level in serum at 6.25 to 25 mg/kg, po administered for 2 weeks started on day 4 post bacterial infection in presence of isoniazid; assay type: organism-based; conditions: in vivo, 336 h
[15] = tested on: Mus musculus; test: Toxicity in BALB/c mouse infected with Mycobacterium tuberculosis H37Ra assessed as change in alkaline phosphatase level in serum at 6.25 to 25 mg/kg, po administered for 2 weeks started on day 4 post bacterial infection in presence of isoniazid; assay type: organism-based; conditions: in vivo, 336 h
[16] = tested on: Mycobacterium tuberculosis; test: Antimycobacterial activity against Mycobacterium tuberculosis H37Ra assessed as inhibition of mycobacterial replication at 6.25 ug/ml after 6 days by microplate Alamar blue assay in absence of isoniazid; assay type: functional, organism-based
[17] = tested on: Mus musculus; test: Toxicity in BALB/c mouse infected with Mycobacterium tuberculosis H37Ra assessed as change in creatinine level in serum at 6.25 to 25 mg/kg, po administered for 2 weeks started on day 4 post bacterial infection; assay type: organism-based; conditions: in vivo, 336 h
[18] = tested on: Mus musculus; test: Toxicity in BALB/c mouse infected with Mycobacterium tuberculosis H37Ra assessed as change in cholesterol level in serum at 6.25 to 25 mg/kg, po administered for 2 weeks started on day 4 post bacterial infection in presence of isoniazid; assay type: organism-based; conditions: in vivo, 336 h
[19] = tested on: Mus musculus; test: Toxicity in BALB/c mouse infected with Mycobacterium tuberculosis H37Ra assessed as weight loss at 6.25 to 25 mg/kg, po administered for 2 weeks started on day 4 post bacterial infection; assay type: organism-based; conditions: in vivo, 336 h
[20] = tested on: Mus musculus; test: Toxicity in BALB/c mouse infected with Mycobacterium tuberculosis H37Ra assessed as change in alkaline phosphatase level in serum at 6.25 to 25 mg/kg, po administered for 2 weeks started on day 4 post bacterial infection; assay type: organism-based; conditions: in vivo, 336 h
[21] = tested on: Mus musculus; test: Toxicity in BALB/c mouse infected with Mycobacterium tuberculosis H37Ra assessed as gross necroscopy changes at 6.25 to 25 mg/kg, po administered for 2 weeks started on day 4 post bacterial infection; assay type: organism-based; conditions: in vivo, 336 h
[22] = tested on: Mus musculus; test: Toxicity in BALB/c mouse infected with Mycobacterium tuberculosis H37Ra assessed as change in calcium level in serum at 6.25 to 25 mg/kg, po administered for 2 weeks started on day 4 post bacterial infection in presence of isoniazid; assay type: organism-based; conditions: in vivo, 336 h
[23] = tested on: Mus musculus; test: Toxicity in BALB/c mouse infected with Mycobacterium tuberculosis H37Ra assessed as change in creatinine level in serum at 6.25 to 25 mg/kg, po administered for 2 weeks started on day 4 post bacterial infection in presence of isoniazid; assay type: organism-based; conditions: in vivo, 336 h
[24] = tested on: Mycobacterium tuberculosis; test: Antimycobacterial activity against Mycobacterium tuberculosis H37Ra infected in BALB/c mouse assessed as reduction of bacterial load in lung at 12.5 mg/kg, po administered for 2 weeks started on day 4 post bacterial infection measured 3 days post last dose co-treated with 1 mg/kg, po isoniazid; assay type: functional
[25] = tested on: Mus musculus; test: Toxicity in BALB/c mouse infected with Mycobacterium tuberculosis H37Ra assessed as change in phosphate level in serum at 6.25 to 25 mg/kg, po administered for 2 weeks started on day 4 post bacterial infection; assay type: organism-based; conditions: in vivo, 336 h
[26] = tested on: Mycobacterium tuberculosis; test: Antimycobacterial activity against Mycobacterium tuberculosis H37Ra assessed as inhibition of mycobacterial replication after 6 days by microplate Alamar blue assay; assay type: functional; conditions: 144 h
[27] = tested on: Mus musculus; test: Toxicity in BALB/c mouse infected with Mycobacterium tuberculosis H37Ra assessed as weight loss at 6.25 to 25 mg/kg, po administered for 2 weeks started on day 4 post bacterial infection in presence of isoniazid; assay type: organism-based; conditions: in vivo, 336 h
[28] = tested on: Mus musculus; test: Toxicity in BALB/c mouse infected with Mycobacterium tuberculosis H37Ra assessed as change in phosphate level in serum at 6.25 to 25 mg/kg, po administered for 2 weeks started on day 4 post bacterial infection in presence of isoniazid; assay type: organism-based; conditions: in vivo, 336 h
[29] = tested on: Mus musculus; test: Toxicity in BALB/c mouse infected with Mycobacterium tuberculosis H37Ra assessed as behavioral changes at 6.25 to 25 mg/kg, po administered for 2 weeks started on day 4 post bacterial infection; assay type: organism-based; conditions: in vivo, 336 h
[30] = tested on: Mycobacterium tuberculosis; test: Antimycobacterial activity against Mycobacterium tuberculosis H37Ra infected in BALB/c mouse assessed as reduction of bacterial load in spleen at 25 mg/kg, po administered for 2 weeks started on day 4 post bacterial infection measured 3 days post last dose; assay type: functional
[31] = tested on: Mus musculus; test: Toxicity in BALB/c mouse infected with Mycobacterium tuberculosis H37Ra at 6.25 to 25 mg/kg, po administered for 2 weeks started on day 4 post bacterial infection by necroscopy in presence of isoniazid; assay type: organism-based; conditions: in vivo, 336 h
[32] = tested on: Mycobacterium avium; test: Antimycobacterial activity against Mycobacterium avium ATCC 25291 assessed as inhibition of mycobacterial replication after 6 days by microplate Alamar blue assay; assay type: functional, Mycobacterium avium subsp. avium ATCC 25291; conditions: ATCC 25291, 144 h
[33] = tested on: Mycobacterium tuberculosis; test: Antimycobacterial activity against Mycobacterium tuberculosis H37Ra assessed as inhibition of mycobacterial replication at 50 ug/ml after 6 days by microplate Alamar blue assay; assay type: functional; conditions: 144 h
[34] = tested on: Mycobacterium tuberculosis; test: Antimycobacterial activity against Mycobacterium tuberculosis H37Ra infected in BALB/c mouse assessed as reduction of bacterial load in spleen at 6.25 to 6.25 mg/kg, po administered for 2 weeks started on day 4 post bacterial infection measured 3 days post last dose; assay type: functional, organism-based
[35] = tested on: Mycobacterium tuberculosis; test: Antimycobacterial activity against Mycobacterium tuberculosis H37Ra infected in BALB/c mouse assessed as reduction of bacterial load in lung at 6.25 to 6.25 mg/kg, po administered for 2 weeks started on day 4 post bacterial infection measured 3 days post last dose; assay type: functional, organism-based
[36] = tested on: Mycobacterium tuberculosis; test: Antimycobacterial activity against Mycobacterium tuberculosis H37Ra assessed as inhibition of mycobacterial replication at 200 ug/ml after 6 days by microplate Alamar blue assay; assay type: functional; conditions: 144 h
[37] = tested on: Mycobacterium tuberculosis; test: Antimycobacterial activity against Mycobacterium tuberculosis H37Ra infected in BALB/c mouse assessed as reduction in bacterial activity in spleen at 6.25 mg/kg, po administered for 2 weeks started on day 4 post bacterial infection measured 3 days post last dose co-treated with 1 mg/kg, po isoniazid; assay type: functional
[38] = tested on: Mycobacterium tuberculosis; test: Antimycobacterial activity against Mycobacterium tuberculosis H37Ra infected in BALB/c mouse assessed as reduction of bacterial load in liver at 12.5 mg/kg, po administered for 2 weeks started on day 4 post bacterial infection measured 3 days post last dose co-treated with 1 mg/kg, po isoniazid; assay type: functional
[39] = tested on: Mycobacterium tuberculosis; test: Antimycobacterial activity against Mycobacterium tuberculosis H37Ra assessed as inhibition of mycobacterial replication at 25 ug/ml after 6 days by microplate Alamar blue assay; assay type: functional; conditions: 144 h
[40] = tested on: Mycobacterium tuberculosis; test: Antimycobacterial activity against Mycobacterium tuberculosis H37Ra infected in BALB/c mouse assessed as reduction of bacterial load in liver at 6.25 to 6.25 mg/kg, po administered for 2 weeks started on day 4 post bacterial infection measured 3 days post last dose; assay type: functional, organism-based
[41] = tested on: Mycobacterium tuberculosis; test: Antimycobacterial activity against Mycobacterium tuberculosis H37Ra assessed as inhibition of mycobacterial replication at 100 ug/ml after 6 days by microplate Alamar blue assay; assay type: functional; conditions: 144 h
[42] = tested on: Mycobacterium tuberculosis; test: Antimycobacterial activity against Mycobacterium tuberculosis H37Ra infected in BALB/c mouse assessed as reduction in bacterial activity in lung at 6.25 mg/kg, po administered for 2 weeks started on day 4 post bacterial infection measured 3 days post last dose co-treated with 1 mg/kg, po isoniazid; assay type: functional

CCCCCCCCCCCCC#Cc1c[nH]c(=O)nc1N
> 200 µg/mL: CC50 at 72 h [1]

Nc1nc(=O)[nH]cc1C#Cc1ccccc1
inactive: inhibition [5] | inhibition [11] | inhibition [16] | inhibition [30]
45%: inhibition (INH) [6]
25 µg/mL: MIC50 [26]
> 200 µg/mL: CC50 at 72 h [1]
100%: inhibition at 6.25 µg/mL [3]
Non-toxic: Activity [2] | Activity [4] | Activity [8] | Activity [9] | Activity [10] | Activity [12] | Activity [13] | Activity [14] | Activity [15] | Activity [17] | Activity [18] | Activity [19] | Activity [20] | Activity [21] | Activity [22] | Activity [23] | Activity [25] | Activity [27] | Activity [28] | Activity [29] | Activity [31]
70%: inhibition (INH) [24]
0.25: fractional inhibitory concentration index (FICI) [7]

CC[C@H]1OC(=O)[C@H](C)[C@@H](O[C@H]2C[C@@](C)(OC)[C@@H](O)[C@H](C)O2)[C@H](C)[C@@H](O[C@@H]2O[C@H](C)C[C@H](N(C)C)[C@H]2O)[C@](C)(OC)C[C@@H](C)C(=O)[C@H](C)[C@@H](O)[C@]1(C)O [CLARITHROMYCIN]
2 µg/mL: MIC90 [32]

CCCCCC#Cc1c[nH]c(=O)nc1N
70%: inhibition (INH) [6] | inhibition (INH) [42]
95%: inhibition (INH) [24]
50%: inhibition in vivo at 25 mg/kg [5]
0.37: fractional inhibitory concentration index (FICI) [7]
79%: inhibition in vivo at 25 mg/kg [11]
12.5 µg/mL: MIC50 [26]
Non-toxic: Activity [2] | Activity [4] | Activity [8] | Activity [9] | Activity [10] | Activity [12] | Activity [13] | Activity [14] | Activity [15] | Activity [17] | Activity [18] | Activity [19] | Activity [20] | Activity [21] | Activity [22] | Activity [23] | Activity [25] | Activity [27] | Activity [28] | Activity [29] | Activity [31]
100%: inhibition at 6.25 µg/mL [3] | inhibition at 50 µg/mL [33] | inhibition at 200 µg/mL [36] | inhibition at 100 µg/mL [41]
> 200 µg/mL: CC50 at 72 h [1]
inactive: Activity [34] | Activity [35] | inhibition [16] | Activity [40]
51%: inhibition in vivo at 25 mg/kg [30]
40%: inhibition (INH) [37]
96%: inhibition (INH) [38]
90%: inhibition at 25 µg/mL [39]
